The source made the active and inactive calls.
Columns and labels:
Format in all cases: functional, organism-based
Escherichia coli = assay: Antimicrobial activity against Escherichia coli at 50 ug/disk by disk diffusion assay
Mycotypha microspora = assay: Antimicrobial activity against Mycotypha microspora at 50 ug/disk by disk diffusion assay
Aspergillus ruber = assay: Antimicrobial activity against Eurotium rubrum at 50 ug/disk by disk diffusion assay
Priestia megaterium = assay: Antimicrobial activity against Bacillus megaterium at 50 ug/disk by disk diffusion assay
[Chlorella] fusca = Antimicrobial activity against Chlorella fusca at 50 ug/disk by disk diffusion assay; conditions: Scenedesmus fuscus
Microbotryum violaceum = assay: Antimicrobial activity against Microbotryum violaceum at 50 ug/disk by disk diffusion assay

Measured: Activity

C/C=C/C=C/C=C/C=C/C=C/C=C/C=C/C=C/C(=O)N(C)[C@@H]1C(=O)N[C@H](C)C(=O)N[C@@H](CC(C)C)C(=O)N2CCC[C@H]2C(=O)N[C@@H](C)C(=O)N[C@@H](CCC(N)=O)C(=O)O[C@@H]1C
inactive: all assays above

C/C=C/C=C/C=C/C=C/C=C/C=C/C=C/C=C/C(=O)N(C)[C@@H]1C(=O)N[C@H](C)C(=O)N[C@@H](CC(C)C)C(=O)N[C@@H](CC(C)C)C(=O)N2CCC[C@H]2C(=O)N[C@@H](C)C(=O)N[C@@H](CCC(N)=O)C(=O)O[C@@H]1C
inactive: all assays above

— ChEMBL document CHEMBL1140142, “Myxochromide B3, a new member of the myxochromide family of secondary metabolites” (J Nat Prod, 2008)
